# According to patent US20230339886A1 (University of Florida Research Foundation, Incorporated, priority 2020, published 2023):
# How the values were obtained:
# [1] = molecular target: T1, REV-ERBα LBD (human; residues 281-614 Δ324-422) (Homo sapiens, UniProt P20393, DEL324-422); test: TR-FRET corepressor interaction assay (REV-ERBα LBD, FITC-SMRT peptide); assay type: biochemical; settings: Table 2, read-out: REVERBα agonism (EC50 class, FRET assay)
# T1 construct: 6×Histag-REV-ERBα LBD (human; residues 281-614 Δ324-422); made in house; host or cells: Escherichia coli
# In short: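 Compound serial dilutions (in DMSO, triplicate) incubated 2 h at 4 °C; Tb donor excited at 340 nm, emission read at 495 nm and FITC acceptor at 520 nm. TR-FRET ratio (520/495 nm) plotted against ligand concentration and fitted to a sigmoidal dose-response curve.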
# REV-ERBβ = molecular target: T2, REV-ERBβ (Homo sapiens, UniProt Q14995); test: TR-FRET corepressor interaction assay (REV-ERBβ, FITC-SMRT peptide); assay type: biochemical; settings: Table 2, read-out: REVERBβ agonism (EC50 class, FRET assay)
# T2 construct: 6×Histag-REV-ERBα LBD (human; residues 381-579); made in house; host or cells: Escherichia coli
# T2 sequence (Q14995 381-579): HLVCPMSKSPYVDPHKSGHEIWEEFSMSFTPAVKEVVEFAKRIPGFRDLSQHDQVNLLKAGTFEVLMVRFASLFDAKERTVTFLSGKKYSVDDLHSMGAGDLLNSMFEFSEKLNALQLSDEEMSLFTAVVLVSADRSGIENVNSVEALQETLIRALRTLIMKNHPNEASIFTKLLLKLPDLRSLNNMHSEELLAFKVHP
# Method: TR-FRET corepressor interaction assay. The time-resolved fluorescence resonance energy transfer (TR-FRET) assay was performed in black low-volume 384-well plates (Greiner). […] Ligand stocks were prepared via serial dilution in DMSO, added to wells in triplicate, and plates were incubated at 4° C. for 2 h and read using a BioTek Synergy Neo multimode plate reader. The Tb donor was excited at 340 nm; its fluorescence emission was monitored at 495 nm, and the acceptor FITC emission was measured at 520 nm; and the TR-FRET ratio was calculated as the signal at 520 nm divided by the signal at 495 nm. Data were plotted using GraphPad Prism as TR-FRET ratio vs. ligand concentration and fit to sigmoidal dose response curve equation.
# Exemplary compounds of the present disclosure were assayed as described above to assess agonism of REV-ERBα and REV-ERBβ.
# T1 sequence (P20393 with tags, fused parts or gaps DEL324-422): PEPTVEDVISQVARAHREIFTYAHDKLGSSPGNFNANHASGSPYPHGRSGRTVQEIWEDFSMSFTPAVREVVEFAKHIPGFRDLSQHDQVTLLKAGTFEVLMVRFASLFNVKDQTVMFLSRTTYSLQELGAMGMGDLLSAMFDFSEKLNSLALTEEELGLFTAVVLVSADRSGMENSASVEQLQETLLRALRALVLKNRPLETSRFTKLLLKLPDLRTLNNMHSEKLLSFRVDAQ
# T1 sequence (Q9Y618 2335-2356 partner limits assumed): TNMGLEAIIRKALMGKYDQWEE
SMILES,EC50 [1],EC50 (REV-ERBβ)
CC(C)Cn1cc(CCNS(=O)(=O)C2CCCC2)c2ccc(-c3ccncc3)cc21 [Compound 11],< 500 nM,> 3 µM
CC(C)Cn1cc(CCNS(=O)(=O)CC(C)C)c2ccc(-c3ccncc3)cc21 [Compound 12],< 500 nM,> 3 µM
CC(C)Cn1cc(CCNS(=O)(=O)C2CC2)c2ccc(-c3ccncc3)cc21 [Compound 13],< 500 nM,> 3 µM
Cc1noc(C)c1S(=O)(=O)NCCc1cn(CC(C)C)c2cc(-c3ccncc3)ccc12 [Compound 14],> 3000 nM,> 3 µM
CC(C)Cn1cc(CCNS(=O)(=O)c2cccnc2)c2ccc(-c3ccncc3)cc21 [Compound 15],500 to 3000 nM,> 3 µM
CC(C)Cn1cc(CCNS(=O)(=O)N(C)C)c2ccc(C3CCCCC3)cc21 [Compound 16],< 500 nM,0.5 to 3 µM
CC(C)Cn1cc(CCNS(=O)(=O)N(C)C)c2ccc(-c3ccnc(C(F)(F)F)c3)cc21 [Compound 17],500 to 3000 nM,> 3 µM
CC(C)Cn1cc(CCNS(=O)(=O)N(C)C)c2ccc(-c3cc[nH]c(=O)c3)cc21 [Compound 18],> 3000 nM,> 3 µM
CC(C)Cn1cc(CCNS(=O)(=O)N(C)C)c2ccc(-c3ccnc(Cl)c3)cc21 [Compound 20],< 500 nM,> 3 µM
CC(C)Cn1cc(CCNS(=O)(=O)N(C)C)c2ccc(-c3ccnc(N)c3)cc21 [Compound 21],500 to 3000 nM,> 3 µM
"CC(C)Cn1cc(CCNS(=O)(=O)N(C)C)c2ccc(-c3ccncc3)cc21 [Compound 27, dimethyl({2-[1-(2-methylpropyl)-6-(pyridin-4-yl)-1H-indol-3-yl]ethyl}sulfamoyl)amine]",–,0.5 to 3 µM
"CC(C)Cn1cc(CCNS(=O)(=O)N(C)C)c2ccc(-c3cccnc3)cc21 [Compound 28, dimethyl({2-[1-(2-methylpropyl)-6-(pyridin-3-yl)-1H-indol-3-yl]ethyl}sulfamoyl)amine]",< 500 nM,> 3 µM
"CC(C)Cn1cc(CCNS(=O)(=O)N(C)C)c2ccc(-c3cncnc3)cc21 [Compound 29, dimethyl({2-[1-(2-methylpropyl)-6-(pyrimidin-5-yl)-1H-indol-3-yl]ethyl}sulfamoyl)amine]",500 to 3000 nM,> 3 µM
"CC(C)Cn1cc(CCNS(=O)(=O)N(C)C)c2ccc(-c3ccccc3)cc21 [Compound 30, dimethyl({2-[1-(2-methylpropyl)-6-phenyl-1H-indol-3-yl]ethyl}sulfamoyl)amine]",–,0.5 to 3 µM
"CC(C)Cn1cc(CCNS(=O)(=O)N(C)C)c2ccc(-c3ccccn3)cc21 [Compound 31, dimethyl({2-[1-(2-methylpropyl)-6-(pyridin-2-yl)-1H-indol-3-yl]ethyl}sulfamoyl)amine]",500 to 3000 nM,> 3 µM
"CC(C)Cn1cc(CCNS(=O)(=O)N(C)C)c2ccc(-c3ncccn3)cc21 [Compound 32, dimethyl({2-[1-(2-methylpropyl)-6-(pyrimidin-2-yl)-1H-indol-3-yl]ethyl}sulfamoyl)amine]",500 to 3000 nM,> 3 µM
"CC(C)Cn1cc(CCNS(=O)(=O)N(C)C)c2ccc(-c3cnn(C)c3)cc21 [Compound 33, dimethyl({2-[6-(1-methyl-1H-pyrazol-4-yl)-1-(2-methylpropyl)-1H-indol-3-yl]ethyl}sulfamoyl)amine]",> 3000 nM,> 3 µM
"CC(C)Cn1cc(CCNS(=O)(=O)N(C)C)c2ccc(-c3ccnn3C)cc21 [Compound 34, dimethyl({2-[6-(1-methyl-1H-pyrazol-5-yl)-1-(2-methylpropyl)-1H-indol-3-yl]ethyl}sulfamoyl)amine]",< 500 nM,> 3 µM
"CC(C)Cn1cc(CCNS(=O)(=O)N(C)C)c2ccc(-c3cn[nH]c3)cc21 [Compound 35, dimethyl({2-[1-(2-methylpropyl)-6-(1H-pyrazol-4-yl)-1H-indol-3-yl]ethyl}sulfamoyl)amine]",< 500 nM,> 3 µM
"CC(C)Cn1cc(CCNS(=O)(=O)N(C)C)c2ccc(-c3ccnc(N4CCOCC4)c3)cc21 [Compound 36, dimethyl({2-[1-(2-methylpropyl)-6-[2-(morpholin-4-yl)pyridin-4-yl]-1H-indol-3-yl]ethyl}sulfamoyl)amine]",> 3000 nM,> 3 µM
"CC(C)Cn1cc(CCNS(=O)(=O)N(C)C)c2ccc(-c3ccnc4ccccc34)cc21 [Compound 37, dimethyl({2-[1-(2-methylpropyl)-6-(quinolin-4-yl)-1H-indol-3-yl]ethyl}sulfamoyl)amine]",< 500 nM,0.5 to 3 µM

# Now from value to compound:
EC50 [1],EC50 (REV-ERBβ),SMILES
> 3000 nM,> 3 µM,"CC(C)Cn1cc(CCNS(=O)(=O)N(C)C)c2ccc(-c3cccc4cnccc34)cc21 [Compound 38, ({2-[6-(isoquinolin-5-yl)-1-(2-methylpropyl)-1H-indol-3-yl]ethyl}sulfamoyl)dimethylamine]"
< 500 nM,> 3 µM,"CC(C)Cn1cc(CCNS(=O)(=O)N(C)C)c2ccc(-c3cccc4ccccc34)cc21 [Compound 39, dimethyl({2-[1-(2-methylpropyl)-6-(naphthalen-1-yl)-1H-indol-3-yl]ethyl}sulfamoyl)amine]"
500 to 3000 nM,> 3 µM,"CC(C)Cn1cc(CCNS(=O)(=O)N(C)C)c2ccccc21 [Compound 68, dimethyl({2-[1-(2-methylpropyl)-1H-indol-3-yl]ethyl}sulfamoyl)amine]"
< 500 nM,0.5 to 3 µM,"CC(C)Cn1cc(CCNS(=O)(=O)N(C)C)c2ccc(C(C)C)cc21 [Compound 91, dimethyl({2-[1-(2-methylpropyl)-6-(propan-2-yl)-1H-indol-3-yl]ethyl}sulfamoyl)amine]"
< 500 nM,> 3 µM,"CCCc1ccc2c(CCNS(=O)(=O)N(C)C)cn(CC(C)C)c2c1 [Compound 98, dimethyl({2-[1-(2-methylpropyl)-6-propyl-1H-indol-3-yl]ethyl}sulfamoyl)amine]"
< 500 nM,0.5 to 3 µM,"CC(C)Cn1cc(CCNS(=O)(=O)N(C)C)c2ccc(C3CCCC3)cc21 [Compound 99, ({2-[6-cyclopentyl-1-(2-methylpropyl)-1H-indol-3-yl]ethyl}sulfamoyl)dimethylamine]"
< 500 nM,> 3 µM,"CCc1ccc2c(CCNS(=O)(=O)N(C)C)cn(CC(C)C)c2c1 [Compound 100, ({2-[6-ethyl-1-(2-methylpropyl)-1H-indol-3-yl]ethyl}sulfamoyl)dimethylamine]"
–,0.5 to 3 µM,"CC(C)Cc1cn(CCNS(=O)(=O)N(C)C)c2ccc(-c3ccncc3)cc12 [Example 23, dimethyl({2-[3-(2-methylpropyl)-5-(pyridin-4-yl)-1H-indol-1-yl]ethyl}sulfamoyl)amine]"
–,> 3 µM,"COc1ccccc1-c1ccc2c(CCNS(=O)(=O)N(C)C)cn(CC(C)C)c2c1 [Example 58, N-{2-[6-(2-methoxylphenyl)-1-(2-methylpropyl)-1H-indol-3-yl]ethyl}-N,N-dimethylsulfuric diamide]"
–,> 3 µM,"CC(C)Cn1cc(CCNS(=O)(=O)N(C)C)c2ccc(-c3ccccc3Cl)cc21 [Example 78, N-{2-[6-(2-chlorophenyl)-1-(2-methylpropyl)-1H-indol-3-yl]ethyl}-N,N-dimethylsulfuric diamide]"
–,> 3 µM,"CC(C)Cn1cc(CCNS(=O)(=O)N(C)C)c2ccc(C3CC3)cc21 [Example 82, N-{2-[6-cyclopropyl-1-(2-methylpropyl)-1H-indol-3-yl]ethyl}-N,N-dimethylsulfuric diamide]"
